This is an account of results in PubChem BioAssay (NCI).

Structures are written as SMILES.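 Step 1: Grow cells in 96-well plates. Step 2: Expose to compound for 48 hours at 5 concentrations. Step 3: Interpolate endpoints linearly; if unreached, use highest concentration. TGI is the concentration that stops growth completely.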 Bounds are passed on as bounds.

Among the test systems are HCC-2998 colon; HCT-15 colon; IGROV1 ovarian; LOX IMVI melanoma; NCI-H226 lung; NCI-H23 lung; SK-MEL-2 melanoma; SW-620 colon; T-47D breast; A498 renal; CAKI-1 renal; CCRF-CEM leukemia; SNB-75 CNS.
Holding throughout (test): NCI anticancer screen, dose series, 48 h

On to `CC(=O)N1N=C(c2ccccc2Nc2ccccc2C2=NN(C(C)=O)C(c3ccccc3)O2)OC1c1ccccc1` (stereo not given), for which the TGI in the assay with HCC-2998 colon, in the assay with HCT-15 colon, with IGROV1 ovarian, in the assay with LOX IMVI melanoma, in the assay on NCI-H226 lung and in the assay with NCI-H23 lung was more than 100 µM throughout. In addition, the TGI in the assay with SK-MEL-2 melanoma, with SW-620 colon and with T-47D breast was more than 100 µM throughout.
Regarding `CC(=O)C(CN(C)Cc1ccccc1)C(c1ccccc1)c1c(O)c2ccccc2oc1=O` (stereo not given), the TGI in the assay with A498 renal, with CAKI-1 renal, in the assay with CCRF-CEM leukemia, with HCC-2998 colon, in the assay with HCT-15 colon and in the assay with IGROV1 ovarian was more than 100 µM throughout. Further, the TGI in the assay with LOX IMVI melanoma is more than 100 µM; with NCI-H226 lung, 99.5 µM; in the assay on NCI-H23 lung it was more than 100 µM; with SK-MEL-2 melanoma, more than 100 µM; in the assay with SNB-75 CNS, more than 100 µM; in the assay on SW-620 colon it was more than 100 µM.
On to `COc1ccc(N2C(=O)C(C#N)=C(SC)C(C#N)C2=O)cc1` (stereo not given), for which the TGI in the assay with A498 renal, in the assay on CAKI-1 renal, with CCRF-CEM leukemia, in the assay with HCC-2998 colon, in the assay on HCT-15 colon and in the assay with IGROV1 ovarian was more than 100 µM throughout. In addition, the TGI with LOX IMVI melanoma, with NCI-H226 lung, in the assay with SK-MEL-2 melanoma, with SNB-75 CNS and in the assay on SW-620 colon was more than 100 µM throughout.
Take `N=C1/C(=C/c2ccccc2)C(=O)N=C2SC=NN12`: the TGI in the assay on CAKI-1 renal, in the assay on CCRF-CEM leukemia, with HCC-2998 colon, in the assay with HCT-15 colon, with IGROV1 ovarian and in the assay on LOX IMVI melanoma was more than 100 µM each time. Also, the TGI in the assay on NCI-H226 lung, with NCI-H23 lung, in the assay on SK-MEL-2 melanoma, in the assay with SNB-75 CNS, with SW-620 colon and in the assay on T-47D breast was more than 100 µM in each case.
Turning to `c1ccc(CNCCCNCCCCNCCCNCc2ccccc2)cc1`, the TGI in the assay on CAKI-1 renal is 23 µM; in the assay on CCRF-CEM leukemia it was more than 21.5 µM; with HCC-2998 colon, 15.2 µM; with HCT-15 colon, 33.8 µM; in the assay on IGROV1 ovarian, 5.58 µM; in the assay with LOX IMVI melanoma, 14.2 µM. Also, the TGI in the assay with NCI-H226 lung is 17.2 µM; in the assay with NCI-H23 lung, 12.3 µM; with SK-MEL-2 melanoma, 31.4 µM; in the assay with SNB-75 CNS, 21.7 µM; with SW-620 colon, 9.13 µM; with T-47D breast it was 39.8 µM.
Consider `Nc1nc(NNc2ccccc2F)cc(=O)[nH]1`, for which the TGI with A498 renal, in the assay with CCRF-CEM leukemia, with HCC-2998 colon, in the assay on HCT-15 colon, in the assay with IGROV1 ovarian and in the assay with LOX IMVI melanoma was more than 100 µM throughout. For the same compound, the TGI in the assay on NCI-H226 lung and in the assay with SW-620 colon was more than 100 µM in each case.
For the compound `O=S(=O)(c1ccccc1)n1cnc(CCc2ccccc2)n1`, the TGI with A498 renal, with CAKI-1 renal, in the assay with CCRF-CEM leukemia, in the assay with HCT-15 colon, with IGROV1 ovarian and in the assay with LOX IMVI melanoma was more than 100 µM in each case. Also, the TGI in the assay with NCI-H226 lung, in the assay on NCI-H23 lung, in the assay on SK-MEL-2 melanoma, with SNB-75 CNS and in the assay with SW-620 colon was more than 100 µM each time.
Take `COc1ccccc1NC(=O)CC(=O)n1nc(-c2ccccc2)c(N=Nc2ccccc2[N+](=O)[O-])c1-c1ccccc1`: the TGI in the assay with CAKI-1 renal, in the assay with CCRF-CEM leukemia, with HCC-2998 colon, with IGROV1 ovarian, in the assay on LOX IMVI melanoma and in the assay with NCI-H226 lung was more than 100 µM throughout. The TGI with NCI-H23 lung, with SK-MEL-2 melanoma, in the assay with SNB-75 CNS and with SW-620 colon was more than 100 µM each time.
As for `O=C(Cc1nc2ccc(C(=O)c3ccccc3)cc2[nH]c1=O)C(=O)Nc1ccc(C(F)(F)F)cc1[N+](=O)[O-]`, the TGI was more than 100 µM in the assay with A498 renal; more than 100 µM in the assay with CAKI-1 renal; 91.8 µM in the assay on CCRF-CEM leukemia; more than 100 µM with HCC-2998 colon; more than 100 µM in the assay on HCT-15 colon; more than 100 µM in the assay on IGROV1 ovarian. For the same compound, the TGI with LOX IMVI melanoma, with NCI-H226 lung, with NCI-H23 lung, in the assay with SK-MEL-2 melanoma, with SNB-75 CNS and with SW-620 colon was more than 100 µM each time.
`NC(CCC(=O)NC(CSC(=O)N(O)c1ccc(Cl)cc1)C(=O)NCC(=O)O)C(=O)O` (stereo not given): the TGI in the assay on CAKI-1 renal, with CCRF-CEM leukemia, in the assay on HCC-2998 colon, in the assay on HCT-15 colon, in the assay on IGROV1 ovarian and in the assay with NCI-H226 lung was more than 0.5 µM each time. Moreover, the TGI in the assay with NCI-H23 lung, in the assay on SK-MEL-2 melanoma, in the assay with SNB-75 CNS and in the assay on SW-620 colon was more than 0.5 µM throughout.
Regarding `O=C1C=Cc2c1csc2Br`, the TGI in the assay with CAKI-1 renal is more than 100 µM; with CCRF-CEM leukemia, 45.8 µM; in the assay with HCT-15 colon, more than 100 µM; with IGROV1 ovarian, more than 100 µM; in the assay with LOX IMVI melanoma it was 60.2 µM; in the assay with NCI-H23 lung, more than 100 µM. Besides, the TGI in the assay with SK-MEL-2 melanoma is more than 100 µM; with SNB-75 CNS, more than 100 µM; with SW-620 colon, 48.8 µM; in the assay with T-47D breast it was more than 100 µM.
In the case of `C[N+](C)(C)CC(=O)N/N=C/c1oc(-c2cccc([N+](=O)[O-])c2)c(-c2cccc([N+](=O)[O-])c2)c1[N+](=O)[O-]`, the TGI in the assay with A498 renal, with CCRF-CEM leukemia, in the assay on HCC-2998 colon, in the assay on IGROV1 ovarian, in the assay with NCI-H23 lung and in the assay on SK-MEL-2 melanoma was more than 100 µM in each case. Moreover, the TGI with SW-620 colon was more than 100 µM.
Consider `CC1(Br)S(=O)(=O)OCCOS1(=O)=O`, for which the TGI with A498 renal, in the assay on CCRF-CEM leukemia, in the assay with HCC-2998 colon, with HCT-15 colon, with IGROV1 ovarian and with LOX IMVI melanoma was more than 100 µM each time. The TGI with NCI-H226 lung, in the assay on NCI-H23 lung, with SK-MEL-2 melanoma, in the assay on SNB-75 CNS and with SW-620 colon was more than 100 µM in each case.
